Test results: patent publication US11952457B2, “Bioabsorbable resin for additive manufacturing with non-cytotoxic photoinitiator” (Carbon, Inc., priority 2021, dated 2024)

Experiments:
[1] = versus BAPO; cited from earlier work
[2] = solubility of dye in resin formulation; format: physicochemical; conditions: final resin formulation (oligomer, PC, DDFD)
Description: The C&D Green Dye #6 is added to the resin to increase the absorbance of the resin for higher resolution printing. […] To mix C&D Green Dye #6 into the resin, the dye is first solubilized in PC at 0.06 wt % at 80° C. The stock solution of 0.06 wt % dye in PC is added to the oligomer to achieve the desired 0.03% concentration in the final resin.
Crystals of the C&D Green Dye #6 may be observed in this resin. C&D Green Dye #6 tends to crystalize in the resin. To prevent crystal aggregation, this resin should be mixed fresh prior to printing.

## CC1(C)COC(=O)C1=O [DDFD, dihydro-4,4-dimethyl-2,3-furandione]
[1]
  cytotoxicity relative to traditional UV photoinitiators such as BAPO: orders of magnitude less cytotoxic

## Cc1ccc(Nc2ccc(Nc3ccc(C)cc3)c3c2C(=O)c2ccccc2C3=O)cc1 [C&D Green Dye #6, 1,4-bis(p-tolylamino)anthraquinone]
[2]
  solubility in the final formulation: limited solubility
